Reference: patent US20260226101A1, “PEPTIDE WITH ANTI-INFLAMMATORY AND ANTI-MICROBIAL ACTIVITY” (priority 2023, published 2026)
Several values for one entry are separate records, joined by “and”; a condition that tells them apart may be missing. Equal values may be shown once. Entries after “also recorded” stand apart in the source; their conditions may differ. Ends that are not written are not given here.

Experiments:
[1] = test system: LPS-stimulated RAW 264.7 cells; experiment: ELISA of cytokines in supernatants of LPS-stimulated RAW 264.7 cells; type: cell-based, murine
Experimental: Cells were sub-cultured by scraping when plates reached 70-80% confluence with a 1:5 ratio in fresh medium. RAW 264.7 cells were plated at density of 1×10^5 cells and allowed for attachment. The growth medium was then replaced with fresh medium without FBS and incubated for 6 h then cells were pre-treated with different concentrations of synthetic peptides: IS 111 (3.12, 6.25, 12.5, 25, 50 and 100 μg/mL) or dexamethasone (500 μg/mL) as a positive control for 1 h followed by stimulation of LPS (1 μg/mL) and then further incubated for 18 h and were allowed to adhere. After 18 h of incubation, plates were centrifuged for 6 min at 400×g and the supernatants and cell lysates were collected and kept frozen at −80° C. until used for further analysis.
At the end of the treatment period, cells were harvested in RNA isoplus reagent for subsequent cellular RNA extraction, for RTqPCR. The pro & anti-inflammatory cytokine production in supernatants was estimated by using ELISA, RTqPCR and western blotting in cell lysates. The experiment was carried out in triplicate. LPS and Dexamethasone were used as the controls.
The following treatments were applied for the anti-inflammatory test: • (1) The negative control: RAW 264.7 cells without being induced by lipopolysaccharide; no drug treatment. • (2) The positive control: RAW264.7 cells that were induced by […] of lipopolysaccharide (LPS group). • (3) The mixture of Synthetic peptides: IS 111 (3.12, 6.25, 12.5, 25, 50 and 100 μg/ml), LPS (1 μg/mL) and RAW 264.7 cells; and • (4) The standard positive control: The mixture of dexamethasone (500 μg/mL), LPS (1 μg/mL), and RAW 264.7 cells.
The levels of IL-6, TNF-α, IL-1β, and IL-10 in the supernatants of RAW 264.7 cell cultures were determined using an ELISA kit, according to the manufacturer's instructions (R&D Systems).

[2] = test system: CLP-induced polymicrobial sepsis; experiment: Cecal ligation and puncture (CLP) polymicrobial sepsis model; type: in vivo, BALB/c mice
Experimental: Polymicrobial sepsis was induced using the CLP method described by [Wendy E. Walker, 2021; Benjamim et al. 2000], with minor modifications and the anesthetic used. Initially, the Mice were derived of food for 12 h before the CLP procedure and then anesthetized by intraperitoneal injection of ketamine (80-100 mg/kg BW) and xylazine in a dose (5-10 mg/kg) (for 20 g mice ketamine of 0.2 ml and xylazine of 0.1 ml). according to [Machado et al. 2012]. under sterile conditions a midline abdominal incision was made and then, a laparotomy of 10 mm/1 cm was performed, where the abdomen of mice was routinely disinfected and cut open in the middle to expose the abdominal cavity, and the cecum was mobilized, was then ligated below the cecal valve at the distal end of the cecum, ¾ was ligated with a sterile No. 4 thread, and punctured (CLP) with a 20-gauge needle in 2 places at the center of the distal end of the occlusal cecum and squeezed gently to extrude a small amount of intestinal contents through the perforation site to induce sepsis. The cecum was located but not ligated or punctured in the control animals. The cecum was placed back into the peritoneal cavity, and the abdominal incision was then closed in two layers with absorbable ethilon suture 5.0, and the animals were resuscitated with 0.1-0.2 mL of normal saline by subcutaneous injection. The sham group of mice had the identical operation as the treated and disease control groups, which included opening the peritoneum and exposing the bowel but without ligation or needle perforation of the cecum. Betadine/tramadol was used to relieve the pain of mice after operation. During the surgery, the […] was applied to the eyes to prevent dryness of the eyes. All the animals were returned to their cages, where they had free access to food and water. After 2 h of CLP, the treatment groups were administered with test peptides (0.6 & 1.2 mg/kg) and the standard drug through the subcutaneous & Intravenous route. To reduce variability between studies, the CLP method was always carried out by the same investigators. [Zingarelli B et al., Libert C et al., Hellman J et al., 2019].
Mice were subjected to CLP surgery and were discarded if they died during the procedure. In all the animal experiments, the test peptide IS 111 was administered by injections respectively; According to the clinical dosage regimen, IS 111 was repeatedly administered at 2 h after CLP surgery and recovery of animals from anesthesia. The mice were divided into the following treatment groups at random: BALB/c mice are used for Intravenous (IV) route of administration. In each group the half of the animals were killed after 4 and 18 hours, [Hubbard, W. J 2005; Rittirsch D 2009]. In another half of the animals, IS 111 at two doses 0.6 & 1.2 mg/kg were injected IV daily for 5 days following CLP. 0.9% Normal saline was administered in the sham group. The survival of mice was monitored for up to 18 h and the other half of the animals are continued for the survival monitored up to 7 days.
In the survival study, survival rates were determined by setting the day 0 from 0 to 18 h after surgery and continuing observation until day 7. In one set of animals/group, survival was monitored every 4 h up to 18 h and in another half subset of animals was followed for 5 days for survival assessment every 12 h after sepsis induction to verify mortality rates. The time of death was recorded as accurately as possible.
The physical activity of the mice was recorded independently by two independent observers who were blinded to treatment before sampling as previously described. In this study predetermined grading system was used with a scale of 1 (healthy) to 5 (agony). This scoring system is based on grading physical activity and food intake (table 16) using spontaneous activity of mice, reactivity to external stimuli, and spontaneous food intake to differentiate between grades 1 and 5. […]

[3] = 3.12-100 μg/mL pretreatment, LPS 18 h, vs LPS group

FAKKFAK [IS 111, Phe-Ala-Lys-Lys-Phe-Ala-Lys]
IL-1β production (ELISA) [1, 3]: inhibited
IL-6 levels (ELISA) [1, 3]: reduced
IL-10 levels (ELISA) [1, 3]: significantly increased
TNF-alpha levels (ELISA) [1, 3]: significantly reduced
Concentration with better inhibition of TNF-α, IL-1β and IL-6 than 100 μg/mL ([1]; LPS induced RAW 264.7): 25 µg/mL
NO production ([1]; LPS-stimulated RAW cells, summary table): ↓Cytotoxicity; ↓ NO production; ↓
Activity index ([2]; 0.6 mg/Kg, 18 h after CLP, scale 1 (very active) to 5 (lethargic)): 2.8 ± 0.5 Grade points
Lung histology ([2]; 0.6 mg/kg, 18 h): Mild lung oedema, haemorrhage, and inflammatory cell infiltration
Serum IL-10 ([2]; 24-48 h after CLP, treatment 2 h after CLP): significant decrease
Bacterial growth in the peritoneum / bacterial counts ([2]; 18 h after CLP): inhibited; also recorded: ↓bacterial counts; ↓liver & kidney
Body temperature ([2]; 18 h after CLP surgery): in range of normal values
IL-10 levels in serum ([2]; 18 h after CLP, IV): increased slightly and 6 and IL-12, &↑IL-10 in serum;
Survival percentage ([2]; 7 days): 80%
Myeloperoxidase levels in the lung ([2]; IS 111-treated mice): significantly decreased
Reduction of mortality ([2]; vs diseased control animals (normal saline)): 80%
Mice still surviving ([2]; ~60 h post-CLP (last death in disease control group)): 80%
